Experimental data as given in the OPERA property sets (Mansouri et al. 2018).

SMILES | logP
COc1cccc(C(=O)NC2CC3CCC(C2)N3Cc2ccccc2)c1OC (stereo unspecified) | 3.24
C1=CC=CCC=C1 | 2.63
NS(=O)(=O)c1ccc(S(N)(=O)=O)cc1 | -0.96
CN(C)N=Nc1cccc2oc3ccccc3c12 | 4.55
OCC(Cl)Cl | 0.37
NC(=O)Nc1cccc(Br)c1 | 2.08
NCCCc1ccncc1 | 0.4
O=C(CC(=O)C(F)(F)F)c1cccs1 | 1.46
CC(=O)Oc1ccccc1Br | 2.2
CNC(=O)Oc1ccc(C(C)C)c(C)c1 | 3.11
COP(=S)(OC)Oc1ccc(Cl)cc1C#N | 3.41
O=[N+]([O-])c1cc(Br)c(O)c(Br)c1 | 3.57
Clc1nc(Cl)c(Cl)[nH]1 | 1.85
NC(=O)NC(=O)Cc1ccccc1 | 0.87
O=S(=O)(CF)Nc1ccccc1 | 1.35
Nc1ccc(/N=N/c2ccccc2)cc1 | 3.41
Nc1ccnc2ccccc12 | 1.63
CCCc1ncc([N+](=O)[O-])n1CCNC(=S)OC | 1.94
Nc1nc2nc[nH]c2c(=S)[nH]1 | -0.07
COc1ccc(Cl)cc1 | 2.78
CC(=O)c1cnc2ccccc2c1 | 1.76
COC(C)(C)CCCC(C)C/C=C/C(C)=C/C(=O)OC(C)C (stereo unspecified) | 5.5
CCC1(CCC(C)C)C(=O)NC(=S)NC1=O | 2.98
CNC(=O)ON=Cc1ccccc1 | 1.49
CN(C)C(N(C)C)=S(I)c1cc(Cl)cc(Cl)c1 (stereo unspecified) | 0.52

SMILES | logP
CN(C)c1cccc2c(S(N)(=O)=O)cccc12 | 2.01
Nc1c([N+](=O)[O-])cc(C(F)(F)F)cc1[N+](=O)[O-] | 2.29
CC(=O)c1ccc(N2CCCCC2)cc1 | 3.13
Nc1ccc(I)cc1 | 2.34
OCCc1cccnc1 | 0.12
NC(=O)c1ccccc1C(N)=O | -1.73
O=C(NCC(O)CO)c1c(I)c(N(CCO)C(=O)CO)c(I)c(N(CCO)C(=O)CO)c1I (stereo unspecified) | -2.55
CCc1ccccc1OC(C)=O | 2.42
CCN(CC)C(C)C(=O)OCn1ncc2c(=O)[nH]cnc21 (stereo unspecified) | 0.72
O=C1C=C(NCCO)C(=O)c2ccccc21 | 1.23
C#CCC(O)(c1ccc(F)cc1)c1cccnc1 (stereo unspecified) | 1.78
O=c1cc(-c2ccccc2)o[nH]1 | 2.55
CC12CCC(=O)C=C1CCC1C2C(O)CC2(C)C1CCC2(O)C(=O)COC(=O)CCC(N)=O (stereo unspecified) | 1.43
O=C(Nc1ccc(Br)cc1)C(F)(F)F | 3.34
CCCSCS(=O)CC(CO)NC(=O)C=Cc1c(C)[nH]c(=O)[nH]c1=O (stereo unspecified) | -0.67
Nc1cccc(N)c1 | -0.33
Cc1ccc(O)c(C(=O)O)c1 | 2.78
Nc1cccc2nc3ccccc3cc12 | 2.47
CC=CC (mixture of isomers) | 2.33
CCCCSC#N | 2.03
CN(C)C1=CC(=O)c2ccccc2C1=O | 1.9
CN1C(=O)CN=C(c2ccc(Cl)cc2)c2cc(F)ccc21 | 3.1
CC(C)=O | -0.24
COc1ccc(C=O)cc1O | 0.97
FC(F)Cl | 1.08

SMILES | logP
CC(=O)Oc1cccc2cccnc12 | 2.03
CCc1ccc(N2C(=O)CCC2=O)cc1 | 1.1
COc1cc(Cl)c(Nc2ccccc2CC(=O)O)c(Cl)c1 | 4.44
c1ccc2oncc2c1 | 1.63
Cc1cc(NS(=O)(=O)c2ccc(N)cc2)nc(C)n1 | -0.33
CCCOC(C)=O | 1.24
COc1ccc(C(c2ccc(OC)cc2)C(C)[N+](=O)[O-])cc1 (stereo unspecified) | 3.87
O=C(c1ccccc1)c1ccc(NS(=O)(=O)C(F)(F)F)cc1 | 4.28
Cc1ccccc1Cl | 3.42
CCCCC#N | 1.12
CN(C)C(N(C)C)=S(I)c1ccc(I)cc1 (stereo unspecified) | 0.28
CCCCC(=O)O | 1.39
c1ccc2[se]ccc2c1 | 3.19
CCCCNC | 1.33
c1cc2c3c(cccc3c1)CC2 | 3.92
CCCCCBr | 3.37
COc1ccc(OC(=O)N(C)C)cc1 | 1.53
CCCCc1cccc(NC(=O)N(C)C)c1 | 3.23
CCN(N=O)C(=O)Nc1ccccc1 | 2.25
CNC(=O)Oc1cc(C)cc(C)c1 | 2.23
CN(C)C(N(C)C)=S(I)c1ccc(F)cc1 (stereo unspecified) | -0.58
O=[N+]([O-])c1ccc(C=Cc2ncc[nH]2)o1 | 1.32
[N-]=[N+]=Nc1ccccc1 | 2.59
COC(=O)Cn1ccnc1[N+](=O)[O-] | -0.09
CCI | 2

SMILES | logP
O=[N+]([O-])c1cccc(F)c1 | 1.9
COc1ccc2c(c1)C13CCN4CC5=CCOC6CC(=O)N2C1C6C5CC43 (stereo unspecified) | 1.85
Cc1cccc(C)n1 | 1.68
CC(=O)C(Cc1ccccc1)C(C)=O | 1.89
CCC(C)(C)C(=O)O | 1.9
Oc1c(Cl)cc(Cl)c(Cl)c1Cl | 4.45
COc1cc(CCO)ccc1O | 0.47
Cn1c(=O)ccc2ccccc21 | 1.45
CCCCCCCOc1ccc(NC(=O)OCCN2CCCCC2)cc1 | 5.87
O=C(OCCOCCO)c1ccccc1 | 1.16
COC(=O)c1ccccc1OC(C)=O | 1.46
O=C1C(=O)c2cccc3cccc1c23 | 1.95
Cc1n[nH]c(C(N)=O)c1[N+](=O)[O-] | -0.38
Cc1ccc([N+](=O)[O-])cn1 | 0.99
Cc1ccc(C(=O)NN)cc1 | 0.72
CCN(CC)CCNC(=O)c1ccc(N)cc1 | 0.88
CNc1c(NCCSCc2nc[nH]c2C)c(=O)c1=O | -0.08
O=S(=O)(Nc1ccc(Cl)cc1)C(F)F | 2.84
CN(C)c1ccc(C(=O)c2ccc(N(C)C)cc2)cc1 | 3.87
CON(C)C(=O)Nc1ccc(Cl)c(Cl)c1 | 3.2
Cc1cc(C)c(C)cc1C | 4
CCc1nnc(N)o1 | -0.3
CC(=O)Nc1ncnc2c1ncn2C | -0.41
Cc1cccc(C)c1[N+](=O)[O-] | 2.95
CCN(CC)C(C)CN1c2ccccc2Sc2ccccc21 (stereo unspecified) | 4.77

SMILES | logP
C#C[C@]1(O)CC[C@H]2[C@@H]3CCc4cc(O)ccc4[C@H]3CC[C@@]21C | 3.67
CCCCCOC(=O)Nc1ccccc1 | 3.8
COc1ccccc1S(I)=C(N(C)C)N(C)C (stereo unspecified) | -0.52
CCC(C)N (stereo unspecified) | 0.74
CCOC(=O)CC | 1.21
C=C(Br)CC1(C(C)C)C(=O)NC(=O)N(C)C1=O (stereo unspecified) | 2.11
COc1cc(NC(=O)NC(=N)N)ccc1C#N | 1.28
COC(=O)c1ccc(OC)cc1 | 2.27
CC(CO)NCc1ccccc1 (stereo unspecified) | 1.28
CC(=O)Nc1ccc2cccccc1-2 | 2.48
CN(C)C(=O)Nc1cccc(N)c1 | -0.1
CCOCCN(CCOCC)N=O | 0.79
CC(=O)Oc1ccc([N+](=O)[O-])cc1 | 1.5
c1cncc([C@@H]2CCCCN2)c1 | 0.97
c1ccn2cccc2c1 | 2.49
O=[N+]([O-])c1cccc(-c2ccccc2)c1 | 3.87
Nc1cccc2cc3ccccc3nc12 | 3.26
CCCC(=O)NN | -0.62
CCCCCC(=O)Nc1ccccc1 | 3.28
CCNc1nc(NCC(C)C)nc(SC(F)F)n1 | 4.3
N#Cc1ccncc1C#N | 0.24
C=C1C[C@]23C[C@@]1(O)CC[C@H]2[C@@]12C=C[C@H](O)[C@@](C)(C(=O)O1)[C@H]2[C@@H]3C(=O)O | 0.24
Oc1ccc(-c2ccccc2)cc1 | 3.2
OCCCCc1ccncc1 | 0.9
C1OC1C1CO1 (stereo unspecified) | -0.52

SMILES | logP
CCCCCNc1nc(NC(C)C)nc(SC(F)F)n1 | 5.2
CC(C)(C)c1ccccn1 | 2.4
CCOC(=O)C(=Cc1ccc(F)cc1)C(=O)OCC | 3.1
N#Cc1ccc[nH]1 | 1.13
CCCN(N=O)C(N)=O | 0.3
COC(COC(N)=O)C1=C(N2CC2)C(=O)C(C)=C(N2CC2)C1=O (stereo unspecified) | -0.15
CNP(=O)(OC)Oc1ccc(C(C)(C)C)cc1Cl (stereo unspecified) | 3.42
CCOc1cccc(S(I)=C(N(C)C)N(C)C)c1 (stereo unspecified) | -0.1
O=C(O)c1cccs1 | 1.57
CCN(CC)CCNC(=O)c1ccccc1 | 1.99
CCC(CC)C(=O)NC(CO)C(O)c1ccc([N+](=O)[O-])cc1 (stereo unspecified) | 1.71
NC(=S)c1cccnc1 | 0.67
Nc1nc(N)nc(-c2ccccc2[N+](=O)[O-])n1 | 0.49
C#CCCCC | 2.73
CCO[Si](OCC)(c1ccccc1)c1ccccc1 | 4.92
Nc1ncnc2nn[nH]c12 | -0.96
NC(=O)C=Cc1ccccc1 | 1.43
O=Ic1ccccc1 | -1.61
Cn1c(N)nc2cc(Cl)c(Cl)cc21 | 2.98
CCNc1nc(NC(C)C(C)C)nc(SC)n1 (stereo unspecified) | 3.9
C=CCCCCC | 3.99
CN(C)C(=O)Oc1ccccc1 | 1.56
CNC | -0.38
CCC(=O)OC1(C(=O)CCl)C(C)CC2C3CCC4=CC(=O)C=CC4(C)C3C(O)CC21C (stereo unspecified) | 3.34
CNC(=O)Oc1ccccc1C(C)(C)C | 2.65

SMILES | logP
Cc1cccc2c(N)cnnc12 | 1.57
COC(OC)(OC)c1ccccc1 | 2.27
COc1ccc(CN(C)N=O)cc1 | 1.62
COc1ccc(C(C)=O)c(OC)c1OC | 1.63
O=[N+]([O-])c1cccc2ncccc12 | 1.86
CC(=O)N[C@@H](CC(N)=O)C(=O)N[C@H](C(N)=O)C(C)C | -1.85
CCc1ccccc1S(I)=C(N(C)C)N(C)C (stereo unspecified) | 0.32
NC(=O)c1ncn2c(=O)n(CCCl)nnc12 | -0.47
CCN(CC)CC | 1.45
O=C1CCC(=O)N1c1ccc(Br)cc1 | 1.18
CC(C)CN(N=O)C(N)=O | 1.04
Clc1cc(Cl)c(Cl)c(-c2c(Cl)c(Cl)c(Cl)c(Cl)c2Cl)c1Cl | 8.16
CF | 0.51
O=[N+]([O-])c1ccccc1SSc1ccccc1[N+](=O)[O-] | 3.37
COc1ccc2cc(C(C)C(=O)OCC(=O)N(C)CC(N)=O)ccc2c1 (stereo unspecified) | 1.37
CCCOC(=O)c1ccc(S(N)(=O)=O)cc1 | 1.75
Clc1ccc(Cl)c(Cl)c1 | 4.02
CC(C)(C)c1cccc(C(C)(C)C)n1 | 4.14
O=[N+]([O-])c1ccc(N=C=S)cc1 | 3.62
CCCCNCCC | 2.12
O=NN1CCOCC1 | -0.44
